Data reported in article PMC10322725, “Assimilatory sulfate reduction in the marine methanogen Methanothermococcus thermolithotrophicus” (Nature Microbiology, 2023).

What was measured:
MtPAPP [1] = molecular target: T1, MtPAPP (Methanothermococcus thermolithotrophicus, UniProt A0AA82WPC3); assay: X-ray crystallography, […] Å; assay type: binding; settings: co-crystallized with 2 mM PAP and MnCl2; partially occupied Mn2+ in active site
T1 construct: recombinant in E. coli, codon-optimized gene in pET-28a(+) NdeI/BamHI, HisTrap, tag cleaved if necessary; DHH domain 1-180, linker 181-210, DHHA1 211-315
T1 sequence (A0AA82WPC3 1-315): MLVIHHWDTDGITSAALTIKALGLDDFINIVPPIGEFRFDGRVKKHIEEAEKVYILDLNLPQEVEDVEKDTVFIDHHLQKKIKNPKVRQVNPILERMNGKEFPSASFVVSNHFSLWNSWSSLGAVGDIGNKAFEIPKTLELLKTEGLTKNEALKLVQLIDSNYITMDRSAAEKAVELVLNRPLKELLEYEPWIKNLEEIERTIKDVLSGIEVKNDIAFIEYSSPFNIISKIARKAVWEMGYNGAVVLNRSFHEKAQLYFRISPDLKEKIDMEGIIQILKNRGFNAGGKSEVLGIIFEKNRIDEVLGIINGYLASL

MtATPS = molecular target: T2, MtATPS (Methanothermococcus thermolithotrophicus, UniProt A0AA82WPC1); assay: coupled NADH oxidation assay with MtAPSK, pyrophosphatase, pyruvate kinase/lactate dehydrogenase; assay type: biochemical; settings: 2.5 mM Na2SO4, 2 mM ATP, Mg2+, pH 7.0, 35 °C; pyrophosphatase rate-limiting
T2 construct: gene sat; recombinant in E. coli, codon-optimized gene in pET-28a(+) NdeI/BamHI, HisTrap, tag cleaved if necessary; homodimer; domains 1-156, 164-314, 320-382
T2 sequence (A0AA82WPC1 4-385): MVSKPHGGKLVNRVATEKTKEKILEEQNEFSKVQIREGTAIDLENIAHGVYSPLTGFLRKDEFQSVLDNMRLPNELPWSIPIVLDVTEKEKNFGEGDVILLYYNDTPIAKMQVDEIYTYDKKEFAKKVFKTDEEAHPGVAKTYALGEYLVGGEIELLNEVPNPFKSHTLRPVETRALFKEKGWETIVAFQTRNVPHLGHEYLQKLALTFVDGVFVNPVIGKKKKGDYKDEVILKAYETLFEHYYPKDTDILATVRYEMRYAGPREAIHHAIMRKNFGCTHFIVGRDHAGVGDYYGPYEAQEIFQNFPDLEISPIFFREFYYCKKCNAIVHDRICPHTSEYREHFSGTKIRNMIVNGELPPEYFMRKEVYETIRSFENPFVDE

MtAPSK = molecular target: T3, MtAPSK (Methanothermococcus thermolithotrophicus, UniProt A0AA82WPC2); assay: coupled NADH oxidation assay with MtATPS, pyrophosphatase, pyruvate kinase/lactate dehydrogenase; assay type: biochemical; settings: APS generated in situ by MtATPS; 2 mM ATP, Mg2+, pH 7.0, 35 °C
T3 construct: gene cysC; recombinant in E. coli, codon-optimized gene in pET-28a(+) NdeI/BamHI, HisTrap, tag cleaved if necessary; homodimer

MtPAPSR [2] = molecular target: T4, MtPAPSR (Methanothermococcus thermolithotrophicus, UniProt A0AA82WPC4); assay: X-ray crystallography, […] Å; assay type: binding; settings: bound in alpha subunit; crystal for phasing co-crystallized with 0.5 mM FAD
T4 construct: alpha and beta co-expressed in E. coli from pET-28a(+) NcoI/BamHI, C-terminal His-tag on alpha, anaerobic purification; alpha2beta2 heterotetramer; with Adenylylsulfate reductase subunit beta (PAPS reductase beta subunit)

MtPAPSR [3] = molecular target: T4, MtPAPSR; assay: coupled assay, oxidation of reduced methyl viologen at […] nm; assay type: biochemical; settings: PAPS generated in situ by MtATPS and MtAPSK, PAP removed by MtPAPP; HEPES pH 7.0, Mn2+, Mg2+, 45 °C, anaerobic
MtPAPP [4] = molecular target: T1, MtPAPP; assay: malachite green phosphate assay; assay type: biochemical; settings: 40 µM PAP, 50 µM MnCl2, Tris/HCl pH 7.64, 40 °C
[5] = molecular target: APS kinase from Methanothermococcus thermolithotrophicus (MtAPSK) (Methanothermococcus thermolithotrophicus); assay: crystal structure; MtAPSK co-crystallized with 2 mM MgCl2, apo state with bound phosphate, sitting drop, 18 °C, aerobic
[6] = molecular target: ATP sulfurylase from Methanothermococcus thermolithotrophicus (MtATPS) (Methanothermococcus thermolithotrophicus); assay: SEC; size exclusion chromatography of purified MtATPS; conditions in the supplement

T4 sequence (A0AA82WPC4 entry or part of it): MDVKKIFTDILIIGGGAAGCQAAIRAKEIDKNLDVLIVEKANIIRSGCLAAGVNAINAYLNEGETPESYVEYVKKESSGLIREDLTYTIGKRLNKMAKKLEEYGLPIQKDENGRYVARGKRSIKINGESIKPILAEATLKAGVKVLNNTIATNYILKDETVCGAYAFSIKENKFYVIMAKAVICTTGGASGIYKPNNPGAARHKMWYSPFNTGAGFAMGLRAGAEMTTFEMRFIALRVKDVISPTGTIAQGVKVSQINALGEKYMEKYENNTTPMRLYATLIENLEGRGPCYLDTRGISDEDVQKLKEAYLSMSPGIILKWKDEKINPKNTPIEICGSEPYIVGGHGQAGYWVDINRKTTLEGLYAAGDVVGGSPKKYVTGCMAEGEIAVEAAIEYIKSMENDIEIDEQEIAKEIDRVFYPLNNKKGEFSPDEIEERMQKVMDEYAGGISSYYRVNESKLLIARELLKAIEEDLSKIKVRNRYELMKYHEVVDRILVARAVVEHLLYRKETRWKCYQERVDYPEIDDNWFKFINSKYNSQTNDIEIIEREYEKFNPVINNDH
T4 sequence (A0AA82WPC5 entry or part of it, further chain): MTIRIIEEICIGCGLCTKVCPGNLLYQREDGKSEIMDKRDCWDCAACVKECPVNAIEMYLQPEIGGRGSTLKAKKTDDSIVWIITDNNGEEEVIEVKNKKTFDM
T3 sequence (A0AA82WPC2 entry or part of it): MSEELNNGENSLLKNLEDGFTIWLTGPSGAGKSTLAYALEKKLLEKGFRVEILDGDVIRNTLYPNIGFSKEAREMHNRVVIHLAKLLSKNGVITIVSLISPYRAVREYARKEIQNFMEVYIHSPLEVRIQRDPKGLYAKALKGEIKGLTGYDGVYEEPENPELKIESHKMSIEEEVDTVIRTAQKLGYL

Compound: Nc1ncnc2c1ncn2[C@@H]1O[C@H](COP(=O)(O)O)[C@@H](O)[C@H]1O [AMP]
- X-ray crystallography, 3.1 Å (MtPAPP [1]): contained the product AMP and an ion in its active site

Compound: Nc1ncnc2c1ncn2[C@@H]1O[C@H](COP(=O)(O)OP(=O)(O)OP(=O)(O)O)[C@@H](O)[C@H]1O [ATP]
- coupled NADH oxidation assay with MtAPSK, pyrophosphatase, pyruvate kinase/lacta (MtATPS): activity of the recombinantly expressed MtATPS and MtAPSK was tested via a coupled assay
- coupled NADH oxidation assay with MtATPS, pyrophosphatase, pyruvate kinase/lacta (MtAPSK): determined by the production of ADP which was coupled to NADH oxidation

Compound: Cc1cc2nc3c(=O)[nH]c(=O)nc-3n(C[C@H](O)[C@H](O)[C@H](O)COP(=O)(O)OP(=O)(O)OC[C@H]3O[C@@H](n4cnc5c(N)ncnc54)[C@H](O)[C@@H]3O)c2cc1C [FAD]
- X-ray crystallography, 1.45 Å (MtPAPSR [2]): the α subunit, containing the flavin adenine dinucleotide (FAD)

Compound: Nc1ncnc2c1ncn2[C@@H]1O[C@H](COP(=O)(O)OS(=O)(=O)O)[C@@H](OP(=O)(O)O)[C@H]1O [PAPS]
- coupled assay, oxidation of reduced methyl viologen at 600 nm (MtPAPSR [3]): MtATPS, a pyrophosphatase and the MtAPSK were used to generate PAPS

Compound: Nc1ncnc2c1ncn2[C@@H]1O[C@H](COP(=O)(O)O)[C@@H](OP(=O)(O)O)[C@H]1O [PAP]
- malachite green phosphate assay (MtPAPP [4]): produced inorganic phosphate (Pi) from PAP at fast rates

Compound: O=S(=O)(O)O [SO42−]
- coupled NADH oxidation assay with MtAPSK, pyrophosphatase, pyruvate kinase/lacta (MtATPS): activity of the recombinantly expressed MtATPS and MtAPSK was tested via a coupled assay

Compound: APS kinase from Methanothermococcus thermolithotrophicus (MtAPSK) (enzyme)
- stoichiometry N [5]: 2

Compound: ATP sulfurylase from Methanothermococcus thermolithotrophicus (MtATPS) (enzyme)
- stoichiometry N [6]: 2
